Laboratory results published in PubChem BioAssay (NCI).
Where “and” joins values, the source holds several entries; their conditions need not be identical. Equal entries are not always repeated.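 Interpolation was linear, between the two tested concentrations surrounding the appropriate level; five concentrations were tested over 48 hours in 96-well plates. Abbreviation: GI50, concentration required for 50% inhibition of growth. At the TGI there is no net growth.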

Assays:
Assay in all cases: growth of human tumour cells (NCI), 48 h
UACC-62 melanoma = system: UACC-62 melanoma
MCF7 breast = system: MCF7 breast
DU-145 prostate = system: DU-145 prostate
IGROV1 ovarian = system: IGROV1 ovarian
PC-3 prostate = system: PC-3 prostate
MDA-MB-435 = system: MDA-MB-435

| SMILES | TGI (UACC-62 melanoma) [µM] | TGI (MCF7 breast) [µM] | GI50 (DU-145 prostate) | TGI (DU-145 prostate) [µM] | TGI (IGROV1 ovarian) [µM] | GI50 (PC-3 prostate) | TGI (PC-3 prostate) | TGI (MDA-MB-435) | GI50 (UACC-62 melanoma) [nM] | GI50 (MCF7 breast) [nM] | GI50 (IGROV1 ovarian) [nM] | GI50 (MDA-MB-435) [nM] |
| --- | --- | --- | --- | --- | --- | --- | --- | --- | --- | --- | --- | --- |
| COC(=O)[C@@H](C)C[C@H](Cc1ccc(F)cc1)NC(=O)c1csc([C@@H](C[C@H](C(C)C)N(C)C(=O)[C@@H](NC(=O)[C@H]2CCCCN2C)C(C)C)OC(C)=O)n1 | > 16.7 | > 16.7 | 0.984 nM and 5.25 nM | 0.0214 | > 16.7 | 1.96 nM and 7.56 nM | > 16.7 µM | 0.00047 µM and 0.00417 µM |  |  |  |  |
| CCOC(=O)Nc1nc2ccc(OCC)cc2s1 | > 100 | > 100 | > 100000 nM | > 100 | > 100 | > 100000 nM | > 100 µM | 3.71 µM | 13400 | 4140 | 31700 | 773 |
| NC1CCC(Nc2nc(NCc3ccc(-c4ccco4)nc3)c3ncn(C4CCCC4)c3n2)CC1 (stereo not given) | 0.223 | 1.22 | 42.6 nM | 12.2 | 10.7 | 30.7 nM | 0.206 µM and 1.69 µM | 1.24 µM | 37.7 | 26.7 | 35.1 | 22.5 |
| CNC(=O)c1ccccc1Nc1nc(Nc2ccc(N3CCOCC3)cc2OC)ncc1Cl | 2.73 | > 50.7 | 768 nM | > 39.2 | 2.15 | 1390 nM | > 66.9 µM | > 66.4 µM | 239 | 133 | 277 | 629 |
| CN(C)c1ccc(-c2cc(-c3ccc(Nc4nc(Nc5ccc(Cl)cc5)nc(Nc5ccc(Cl)cc5)n4)cc3)no2)cc1 | 62.2 | 10.7 | 3860 nM | 16.4 | 15 |  |  | 32.3 µM | 17100 | 2460 | 2060 | 3330 |
| COc1cc2nc(C)nc(N[C@H](C)c3cc(N)cc(C(F)(F)F)c3)c2cc1O[C@H]1CCOC1 | 31 | 31.3 | 16200 nM | 30.5 | 20.3 | 10400 nM | 23.4 µM | 30.5 µM | 16300 | 12900 | 2250 | 16800 |
| CCOc1ccccc1-n1c(CN2CCN(C(=O)COc3ccc(CNCCCCCCN4C5CCCC4CC(OC(=O)Nc4cc(C)ccc4OC)C5)cc3)CC2)nc2ccccc2c1=O (stereo not given) | 3.22 | 2.06 | 1800 nM | 3.49 | 3.47 | 1590 nM | 3.61 µM | 2.12 µM | 1770 | 750 | 1720 | 811 |
| O=C(CN1CCN(c2cc3c(cc2F)c(=O)c(C(=O)N/N=C/c2ccccc2O)cn3C2CC2)CC1)N/N=C\c1ccccc1O | 12.4 | > 100 | 716 nM | > 100 | > 100 | 531 nM | > 100 µM | > 100 µM | 758 | 398 | 787 | 990 |
| COc1cc(/C=C/c2cc(/C=C/c3ccc(O)c(OC)c3)n(C(=O)Nc3ccc(F)cc3)n2)ccc1O | 6.68 | 7.66 | 1530 nM | 11.4 | 34.3 | 957 nM | 12.8 µM | 0.561 µM | 817 | 402 | 2380 | 214 |
| CC[C@@]12CCCN3CC[C@]4(c5cccc(OC)c5N(C(C)=O)[C@@H]4CC1)[C@H]32 | > 100 | > 100 |  | > 100 | > 100 |  | > 100 µM | > 100 µM |  |  |  |  |
| CCc1ccc2c(c1)C(=O)c1c-2n(CCCBr)c(=O)c2cc([N+](=O)[O-])ccc12 | > 50 | > 50 | > 50000 nM | > 50 | > 50 | > 50000 nM | > 50 µM | > 50 µM | 32200 | 19900 | 27900 | > 50000 |
| O=C(CCl)N1c2ccccc2Oc2ccc3ccccc3c21 | 3 |  | 1170 nM | 2.53 | 2.53 | 1720 nM | 3.62 µM | 1.88 µM | 1570 |  | 830 | 577 |
| O=C(O)c1cc(C(=O)O)cc(N2C(=O)c3ccccc3C2=O)c1 | > 100 | > 100 |  | > 100 | > 100 |  | > 100 µM | > 100 µM |  |  |  |  |
| CSCCCN(CCCSC)CCCSC | > 100 | > 100 |  | > 100 | > 100 |  | > 100 µM | > 100 µM |  |  |  |  |
| CSc1ccccc1C#C/C=C\C#Cc1ccccc1N1CCCC1=O | > 50 | > 50 | > 22500 nM | > 50 | > 50 | > 50000 nM | > 50 µM | > 13.9 µM |  |  | 14900 |  |
| CNC(=O)c1cc(Oc2ccc3nc(NC(=O)Nc4ccc(Cl)c(C(F)(F)F)c4)sc3c2)ccn1 |  |  |  |  | 5.12 |  |  |  |  |  | 2020 |  |
| O=C1/C(=C/c2ccc([N+](=O)[O-])cc2)COc2ccc(O)c(O)c21 | 3.35 |  | 1460 nM | 2.85 | 3.55 | 1590 nM | 4.53 µM | 3.08 µM | 1570 |  | 1250 | 1580 |
| COc1cc(C(=O)/C=C/c2sc(Cl)nc2Cl)cc(OC)c1OC | 3.61 | 3.68 | 1800 nM | 3.21 | 3.22 | 1800 nM | 3.7 µM | 4.11 µM | 1860 | 1780 | 1680 | 2000 |
| Cc1cc(=O)[nH]c2cc3oc4ccccc4c3cc12 | > 100 | > 100 |  | > 100 | > 100 |  | > 100 µM | > 100 µM |  |  |  |  |
| COc1cc2nc(-c3ccc(C(F)(F)F)cc3)cc(OCCCN3CCC(O)CC3)c2cc1OC | 7.28 | 18.2 | 4960 nM | 20.4 | 18.2 | 3660 nM | 19.5 µM | 9.31 µM | 2610 | 2570 | 900 | 2760 |
| O=C1c2cccnc2-c2nc(-c3ccccc3[N+](=O)[O-])cc3c2c1nc1ccccc13 | 40.9 | 15.4 | 14900 nM | 33.3 | 83.3 | 19500 nM | 69.1 µM | 22.2 µM | 9900 | 3250 | 12300 | 7100 |
| Cc1cc2nc(C(Cl)Cl)nc(-c3ccc(Cl)cc3)n2n1 |  | 5.1 | 268 nM | 0.827 | 5.28 | 1330 nM | 4.16 µM | 2.79 µM |  | 465 | 1380 | 1260 |
